Assay results taken from PubChem BioAssay (NCI).
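All cell lines were grown in 96-well plates and treated with compound for 48 hours. TGI is the concentration that stops growth completely.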

What was measured:
Test in all cases: NCI anticancer screen, dose series, 48 h
SF-268 CNS = test system: SF-268 CNS
MDA-MB-435 = test system: MDA-MB-435
NCI-H460 lung = test system: NCI-H460 lung
ACHN renal = test system: ACHN renal
OVCAR-8 ovarian = test system: OVCAR-8 ovarian
K-562 leukemia = test system: K-562 leukemia
SF-295 CNS = test system: SF-295 CNS
BT-549 breast = test system: BT-549 breast
A498 renal = test system: A498 renal
CAKI-1 renal = test system: CAKI-1 renal
MDA-N = test system: MDA-N
OVCAR-3 ovarian = test system: OVCAR-3 ovarian
SN12C renal = test system: SN12C renal
SK-MEL-28 melanoma = test system: SK-MEL-28 melanoma
A549 NSCLC = test system: A549 NSCLC
NCI-H23 lung = test system: NCI-H23 lung
MCF7 breast = test system: MCF7 breast
T-47D breast = test system: T-47D breast
HS 578T breast = test system: HS 578T breast
OVCAR-5 ovarian = test system: OVCAR-5 ovarian
HL-60(TB) leukemia = test system: HL-60(TB) leukemia
DU-145 prostate = test system: DU-145 prostate
UACC-62 melanoma = test system: UACC-62 melanoma
SNB-75 CNS = test system: SNB-75 CNS
U251 CNS = test system: U251 CNS
MDA-MB-231 breast = test system: MDA-MB-231 breast
COLO 205 colon = test system: COLO 205 colon
SK-OV-3 ovarian = test system: SK-OV-3 ovarian
IGROV1 ovarian = test system: IGROV1 ovarian
HCT-116 colon = test system: HCT-116 colon
CCRF-CEM leukemia = test system: CCRF-CEM leukemia
SK-MEL-5 melanoma = test system: SK-MEL-5 melanoma
HCT-15 colon = test system: HCT-15 colon
RPMI-8226 leukemia = test system: RPMI-8226 leukemia
PC-3 prostate = test system: PC-3 prostate
SK-MEL-2 melanoma = test system: SK-MEL-2 melanoma
SF-539 CNS = test system: SF-539 CNS
LOX IMVI melanoma = test system: LOX IMVI melanoma
HCC-2998 colon = test system: HCC-2998 colon
MALME-3M melanoma = test system: MALME-3M melanoma
NCI-H226 lung = test system: NCI-H226 lung
786-0 renal = test system: 786-0 renal
SNB-19 CNS = test system: SNB-19 CNS
OVCAR-4 ovarian = test system: OVCAR-4 ovarian
EKVX NSCLC = test system: EKVX NSCLC
NCI-H522 lung = test system: NCI-H522 lung
MOLT-4 leukemia = test system: MOLT-4 leukemia
HT29 colon = test system: HT29 colon
M14 melanoma = test system: M14 melanoma
SR leukemia = test system: SR leukemia
SW-620 colon = test system: SW-620 colon
UACC-257 melanoma = test system: UACC-257 melanoma
HOP-62 NSCLC = test system: HOP-62 NSCLC
TK-10 renal = test system: TK-10 renal
KM12 colon = test system: KM12 colon
UO-31 renal = test system: UO-31 renal

CCC1OC(=O)CC(O)C(C)C(OC2OC(C)C(O)C(N(C)C)C2O)C(CC=O)CC(C)C(=O)/C=C/C2(C)OC2C1C (stereo unspecified) showed a TGI (SF-268 CNS) of 79.8 µM, a TGI (MDA-MB-435) of over 100 µM and a TGI (NCI-H460 lung) of over 100 µM. The TGI (ACHN renal) was over 100 µM, the TGI (OVCAR-8 ovarian) was 18.3 µM and the TGI (K-562 leukemia) was over 100 µM. It also gave a TGI (SF-295 CNS) of over 100 µM, a TGI (BT-549 breast) of 99.6 µM and a TGI (A498 renal) of 94.3 µM. The TGI (CAKI-1 renal) was 82.1 µM, the TGI (MDA-N) was over 100 µM and the TGI (OVCAR-3 ovarian) was 73.6 µM. It also gave a TGI (SN12C renal) of 30.5 µM, a TGI (SK-MEL-28 melanoma) of over 100 µM and a TGI (A549 NSCLC) of over 100 µM. It also gave a TGI (NCI-H23 lung) of 91.8 µM, a TGI (MCF7 breast) of 50.7 µM and a TGI (T-47D breast) of 53.7 µM. For the same molecule, the TGI (HS 578T breast) was 76.1 µM, the TGI (OVCAR-5 ovarian) was over 100 µM and the TGI (HL-60(TB) leukemia) was over 100 µM. The TGI (DU-145 prostate) was over 100 µM, the TGI (UACC-62 melanoma) was 49.8 µM and the TGI (SNB-75 CNS) was 90 µM. The TGI (U251 CNS) was over 100 µM, the TGI (MDA-MB-231 breast) was 66.2 µM and the TGI (COLO 205 colon) was 36.3 µM. The TGI (SK-OV-3 ovarian) was over 100 µM, the TGI (IGROV1 ovarian) was 47.6 µM and the TGI (HCT-116 colon) was 37.2 µM. The TGI (CCRF-CEM leukemia) was 60.2 µM, the TGI (SK-MEL-5 melanoma) was over 100 µM and the TGI (HCT-15 colon) was over 100 µM. For the same molecule, the TGI (RPMI-8226 leukemia) was 34.6 µM, the TGI (PC-3 prostate) was over 100 µM and the TGI (SK-MEL-2 melanoma) was over 100 µM. It also gave a TGI (SF-539 CNS) of 80.5 µM, a TGI (LOX IMVI melanoma) of 34.1 µM and a TGI (HCC-2998 colon) of 31.2 µM. For the same molecule, the TGI (MALME-3M melanoma) was 27.4 µM, the TGI (NCI-H226 lung) was over 100 µM and the TGI (786-0 renal) was 72.6 µM. The TGI (SNB-19 CNS) was over 100 µM, the TGI (OVCAR-4 ovarian) was over 100 µM and the TGI (EKVX NSCLC) was over 100 µM. For the same molecule, the TGI (NCI-H522 lung) was 33 µM, the TGI (MOLT-4 leukemia) was 41.2 µM and the TGI (HT29 colon) was 37 µM. It also gave a TGI (M14 melanoma) of 39.2 µM, a TGI (SR leukemia) of 44.6 µM and a TGI (SW-620 colon) of 41.2 µM. It also gave a TGI (UACC-257 melanoma) of 44.7 µM, a TGI (HOP-62 NSCLC) of over 100 µM and a TGI (TK-10 renal) of over 100 µM. It also gave a TGI (KM12 colon) of 29.6 µM.

COc1ccc(C2SC(N)=Nc3c2c(C)nn3C(=O)Cc2ccccc2)cc1 (stereo unspecified) gave a TGI (SF-268 CNS) of over 100 µM, a TGI (MDA-MB-435) of over 100 µM and a TGI (NCI-H460 lung) of over 100 µM. The TGI (ACHN renal) was over 100 µM, the TGI (OVCAR-8 ovarian) was over 100 µM and the TGI (K-562 leukemia) was over 100 µM. The TGI (SF-295 CNS) was over 100 µM, the TGI (BT-549 breast) was over 100 µM and the TGI (A498 renal) was over 100 µM. For the same molecule, the TGI (CAKI-1 renal) was over 100 µM, the TGI (UO-31 renal) was over 100 µM and the TGI (MDA-N) was over 100 µM. It also gave a TGI (SN12C renal) of over 100 µM, a TGI (SK-MEL-28 melanoma) of over 100 µM and a TGI (A549 NSCLC) of over 100 µM. It also gave a TGI (NCI-H23 lung) of over 100 µM, a TGI (MCF7 breast) of over 100 µM and a TGI (T-47D breast) of over 100 µM. For the same molecule, the TGI (HS 578T breast) was over 100 µM, the TGI (HL-60(TB) leukemia) was over 100 µM and the TGI (DU-145 prostate) was over 100 µM. For the same molecule, the TGI (UACC-62 melanoma) was over 100 µM, the TGI (SNB-75 CNS) was over 100 µM and the TGI (MDA-MB-231 breast) was over 100 µM. For the same molecule, the TGI (COLO 205 colon) was over 100 µM, the TGI (SK-OV-3 ovarian) was over 100 µM and the TGI (IGROV1 ovarian) was over 100 µM. For the same molecule, the TGI (HCT-116 colon) was over 100 µM, the TGI (CCRF-CEM leukemia) was over 100 µM and the TGI (SK-MEL-5 melanoma) was over 100 µM. For the same molecule, the TGI (HCT-15 colon) was over 100 µM, the TGI (RPMI-8226 leukemia) was over 100 µM and the TGI (PC-3 prostate) was over 100 µM. It also gave a TGI (SF-539 CNS) of over 100 µM, a TGI (LOX IMVI melanoma) of over 100 µM and a TGI (HCC-2998 colon) of over 100 µM. It also gave a TGI (MALME-3M melanoma) of over 100 µM, a TGI (NCI-H226 lung) of over 100 µM and a TGI (786-0 renal) of over 100 µM. It also gave a TGI (SNB-19 CNS) of over 100 µM, a TGI (EKVX NSCLC) of over 100 µM and a TGI (NCI-H522 lung) of over 100 µM. It also gave a TGI (MOLT-4 leukemia) of over 100 µM, a TGI (HT29 colon) of over 100 µM and a TGI (M14 melanoma) of over 100 µM. The TGI (SR leukemia) was over 100 µM, the TGI (SW-620 colon) was over 100 µM and the TGI (UACC-257 melanoma) was over 100 µM. The TGI (HOP-62 NSCLC) was over 100 µM, the TGI (TK-10 renal) was over 100 µM and the TGI (KM12 colon) was over 100 µM.
